These are literature values, as cited in patent US20190274971A1, “USE OF AMERICAN GINSENG TO […]-INDUCED INTOXICATION” (ENGEN MEDICAL CORPORATION, priority 2018, published 2019).

This data set concerns the target CB1 receptor (Homo sapiens, UniProt P21554). Conditions: literature statement (Leonti et al., Biochemical Pharmacology 79(12):1815-1826, 2010).

Chain of CB1 receptor (P21554 whole entry): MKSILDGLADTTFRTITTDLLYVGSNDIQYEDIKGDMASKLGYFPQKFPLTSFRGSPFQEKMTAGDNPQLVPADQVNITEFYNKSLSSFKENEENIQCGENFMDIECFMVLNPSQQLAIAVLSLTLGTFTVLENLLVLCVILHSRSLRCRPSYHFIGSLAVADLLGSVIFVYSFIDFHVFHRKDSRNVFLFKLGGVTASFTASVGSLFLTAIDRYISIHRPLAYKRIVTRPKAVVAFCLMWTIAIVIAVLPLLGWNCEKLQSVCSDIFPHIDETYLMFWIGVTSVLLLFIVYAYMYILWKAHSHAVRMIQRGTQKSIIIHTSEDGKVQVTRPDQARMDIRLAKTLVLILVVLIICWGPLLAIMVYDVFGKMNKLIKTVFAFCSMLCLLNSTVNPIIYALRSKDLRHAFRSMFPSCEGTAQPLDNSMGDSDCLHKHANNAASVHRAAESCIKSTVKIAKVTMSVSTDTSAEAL

Consider `C=C[C@H](O)C#CC#CC/C=C\CCCCCCC` [falcarinol], for which the “activity at the CB1 receptor” value was “potent inverse agonist”.
